Assay results: US20240182445A1 (ONO PHARMACEUTICAL CO., LTD., priority 2019, published 2024)

Biological target: T1, human TREK-1 (Homo sapiens, UniProt O95069)
T1 construct: expressed in transfected cells
T1 sequence (O95069 1-426): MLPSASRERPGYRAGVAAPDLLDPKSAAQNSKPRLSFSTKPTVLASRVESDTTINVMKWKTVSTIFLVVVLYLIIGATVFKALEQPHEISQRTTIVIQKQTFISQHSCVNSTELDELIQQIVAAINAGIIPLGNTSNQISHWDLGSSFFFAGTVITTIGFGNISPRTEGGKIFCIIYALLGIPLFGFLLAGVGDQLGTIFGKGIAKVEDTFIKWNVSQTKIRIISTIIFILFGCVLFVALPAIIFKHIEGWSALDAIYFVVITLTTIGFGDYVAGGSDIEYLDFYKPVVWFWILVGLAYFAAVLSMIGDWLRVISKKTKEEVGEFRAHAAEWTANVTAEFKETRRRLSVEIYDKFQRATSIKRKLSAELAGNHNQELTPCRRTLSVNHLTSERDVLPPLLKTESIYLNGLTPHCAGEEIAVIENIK
Assay: TREK-1 Thallium (Tl+) flux assay, Method 1
Assay type: cell-based
Details: TREK-1 Thallium (Tl+) flux assay
How it was run: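 CHO-K1 cells stably expressing human TREK-1, loaded with Thallos dye, received compound or 0.3% DMSO vehicle for 10 min before thallium stimulus buffer. ΔRatio is fluorescence at 25 s after thallium addition over mean pre-addition fluorescence; % inhibition calculated from it.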

[1] = no *^12 (Method 2) mark on these rows

## COc1ccc(-c2cnc(NC(=O)c3c(Cl)cnn3C3CCN(C(=O)OC(C)(C)C)CC3)c(C)c2)cc1OC [Compound 384, tert-butyl 4-(4-chloro-5-((5-(3,4-dimethoxyphenyl)-3-methylpyridin-2-yl)carbamoyl)-1H-pyrazol-1-yl)piperidine-1-carboxylate]
[1]
  IC50: 740 nM

## Cc1cc(OCc2ccccc2)ccc1NC(=O)c1c(Cl)cnn1[C@H]1CC[C@@H](NC(=O)C2CC2)CC1 [Compound 385, N-(4-(benzyloxy)-2-methylphenyl)-4-chloro-1-(cis-4-(cyclopropanecarboxamido)cyclohexyl)-1H-pyrazole-5-carboxamide]
[1]
  IC50: 830 nM

## COc1c(F)cc(-c2cnc(NC(=O)c3c(Cl)cnn3C3CCN(C(=O)OC(C)(C)C)CC3)c(C)c2)cc1F [Compound 386, tert-butyl 4-(4-chloro-5-((5-(3,5-difluoro-4-methoxyphenyl)-3-methylpyridin-2-yl)carbamoyl)-1H-pyrazol-1-yl)piperidine-1-carboxylate]
[1]
  IC50: 890 nM

## Cc1cc(-c2cnn(-c3ccc(F)cc3)c2)cnc1NC(=O)c1c(Cl)cnn1C[C@H]1CCOC1 [Compound 387, (R)-4-chloro-N-(5-(1-(4-fluorophenyl)-1H-pyrazol-4-yl)-3-methylpyridin-2-yl)-1-((tetrahydrofuran-3-yl)methyl)-1H-pyrazole-5-carboxamide]
[1]
  IC50: 900 nM

## CC(=O)N1CCC(n2ncc(Cl)c2C(=O)Nc2ccc(OCc3ccccc3)cc2C)CC1 [Compound 388, 1-(1-acetylpiperidin-4-yl)-N-(4-(benzyloxy)-2-methylphenyl)-4-chloro-1H-pyrazole-5-carboxamide]
[1]
  IC50: 1050 nM

## Cc1cc(-c2cnn(-c3ccc(F)cc3)c2)cnc1NC(=O)c1c(Cl)cnn1CC1(C#N)CC1 [Compound 389, 4-chloro-1-((1-cyanocyclopropyl)methyl)-N-(5-(1-(4-fluorophenyl)-1H-pyrazol-4-yl)-3-methylpyridin-2-yl)-1H-pyrazole-5-carboxamide]
[1]
  IC50: 1210 nM

## COc1ccc(-c2cnc(NC(=O)c3c(Cl)cnn3C3CCN(C(=O)OC(C)(C)C)CC3)c(C)c2)cc1C(C)C [Compound 390, tert-butyl 4-(4-chloro-5-((5-(3-isopropyl-4-methoxyphenyl)-3-methylpyridin-2-yl)carbamoyl)-1H-pyrazol-1-yl)piperidine-1-carboxylate]
[1]
  IC50: 1210 nM

## Cc1cc(OCc2ccccc2)ccc1NC(=O)c1c(Cl)cnn1C1CCN(C(=O)C2COCCO2)CC1 (centres unmarked) [Compound 391, 1-(1-(1,4-dioxane-2-carbonyl)piperidin-4-yl)-N-(4-(benzyloxy)-2-methylphenyl)-4-chloro-1H-pyrazole-5-carboxamide]
[1]
  IC50: 1250 nM

## CCC(=O)N[C@H]1CC[C@@H](n2ncc(Cl)c2C(=O)Nc2ccc(OCc3ccccc3)cc2C)CC1 [Compound 392, N-(4-(benzyloxy)-2-methylphenyl)-4-chloro-1-(cis-4-propionamidocyclohexyl)-1H-pyrazole-5-carboxamide]
Method 1
  IC50: 1260 nM

## CC(=O)N1CCC(n2ncc(Cl)c2C(=O)Nc2ncc(OCc3ccccc3)cc2C)CC1 [Compound 393, 1-(1-acetylpiperidin-4-yl)-N-(5-(benzyloxy)-3-methylpyridin-2-yl)-4-chloro-1H-pyrazole-5-carboxamide]
Method 1
  IC50: 1270 nM

## Cc1cc(-c2cnn(-c3ccc(F)cc3)c2)cnc1NC(=O)c1c(Cl)cnn1C1CC(C#N)C1 (centres unmarked) [Compound 394, 4-chloro-1-(3-cyanocyclobutyl)-N-(5-(1-(4-fluorophenyl)-1H-pyrazol-4-yl)-3-methylpyridin-2-yl)-1H-pyrazole-5-carboxamide]
Method 1
  IC50: 1340 nM

## Cc1cc(-c2cnn(-c3ccc(F)cc3)c2)cnc1NC(=O)c1c(Cl)cnn1[C@H]1CCOC1 [Compound 395, (S)-4-chloro-N-(5-(1-(4-fluorophenyl)-1H-pyrazol-4-yl)-3-methylpyridin-2-yl)-1-(tetrahydrofuran-3-yl)-1H-pyrazole-5-carboxamide]
Method 1
  IC50: 1420 nM

## Cc1cc(-c2ccc(C(F)(F)F)nc2)cnc1NC(=O)c1c(Cl)cnn1C1CCN(C(=O)OC(C)(C)C)CC1 [Compound 396, tert-butyl 4-(4-chloro-5-((5-methyl-6′-(trifluoromethyl)-[3,3′-bipyridin]-6-yl)carbamoyl)-1H-pyrazol-1-yl)piperidine-1-carboxylate]
Method 1
  IC50: 1600 nM

## CCC(=O)N1CCC(n2ncc(Cl)c2C(=O)Nc2ccc(OCc3ccccc3)cc2C)CC1 [Compound 397, N-(4-(benzyloxy)-2-methylphenyl)-4-chloro-1-(1-propionylpiperidin-4-yl)-1H-pyrazole-5-carboxamide]
Method 1
  IC50: 1680 nM

## Cc1cc(OCc2ccccc2)ccc1NC(=O)c1c(Cl)cnn1C1CC2(C1)CN(C(=O)C(C)C)C2 [Compound 398, N-(4-(benzyloxy)-2-methylphenyl)-4-chloro-1-(2-isobutyryl-2-azaspiro[3.3]heptan-6-yl)-1H-pyrazole-5-carboxamide]
Method 1
  IC50: 1740 nM

## CC(=O)N[C@H]1CC[C@@H](n2ncc(Cl)c2C(=O)Nc2ccc(OCc3ccccc3)cc2C)CC1 [Compound 399, 1-(cis-4-acetamidocyclohexyl)-N-(4-(benzyloxy)-2-methylphenyl)-4-chloro-1H-pyrazole-5-carboxamide]
Method 1
  IC50: 1760 nM

## Cc1cc(OCc2ccccc2)ccc1NC(=O)c1c(Cl)cnn1C1CCN(C(=O)C2CC2)CC1 [Compound 400, N-(4-(benzyloxy)-2-methylphenyl)-4-chloro-1-(1-(cyclopropanecarbonyl)piperidin-4-yl)-1H-pyrazole-5-carboxamide]
Method 1
  IC50: 1780 nM

## Cc1cc(OCc2ccccc2)ccc1NC(=O)c1c(Cl)cnn1C1CCN(C(=O)CC(C)C)CC1 [Compound 401, N-(4-(benzyloxy)-2-methylphenyl)-4-chloro-1-(1-(3-methylbutanoyl)piperidin-4-yl)-1H-pyrazole-5-carboxamide]
Method 1
  IC50: 1780 nM

## Cc1cc(OCc2ccccc2)ccc1NC(=O)c1c(Cl)cnn1C1CCN(C(=O)C2CCC2)CC1 [Compound 402, N-(4-(benzyloxy)-2-methylphenyl)-4-chloro-1-(1-(cyclobutanecarbonyl)piperidin-4-yl)-1H-pyrazole-5-carboxamide]
Method 1
  IC50: 2160 nM

## COc1ccc(-c2cnc(NC(=O)c3c(Cl)cnn3C3CCN(C(=O)OC(C)(C)C)CC3)c(C)c2)c(C)c1 [Compound 403, tert-butyl 4-(4-chloro-5-((5-(4-methoxy-2-methylphenyl)-3-methylpyridin-2-yl)carbamoyl)-1H-pyrazol-1-yl)piperidine-1-carboxylate]
Method 1
  IC50: 2290 nM

## Cc1cc(OCc2ccccc2)ccc1NC(=O)c1c(Cl)cnn1[C@H]1CC[C@@H](NC(=O)OC(C)(C)C)CC1 [Compound 404, tert-butyl (cis-4-(5-((4-(benzyloxy)-2-methylphenyl)carbamoyl)-4-chloro-1H-pyrazol-1-yl)cyclohexyl)carbamate]
Method 1
  IC50: 2300 nM

## Cc1cc(OCc2ccccc2)ccc1NC(=O)c1c(Cl)cnn1C1CCN(C(=O)C(C)(C)C)CC1 [Compound 405, N-(4-(benzyloxy)-2-methylphenyl)-4-chloro-1-(1-pivaloylpiperidin-4-yl)-1H-pyrazole-5-carboxamide]
Method 1
  IC50: 2310 nM

## Cc1cc(OCc2ccccc2)ccc1NC(=O)c1c(Cl)cnn1C1CC2(C1)CN(C(=O)C1CC1)C2 [Compound 406, N-(4-(benzyloxy)-2-methylphenyl)-4-chloro-1-(2-(cyclopropanecarbonyl)-2-azaspiro[3.3]heptan-6-yl)-1H-pyrazole-5-carboxamide]
Method 1
  IC50: 2540 nM

## COc1ccc(-c2cnc(NC(=O)c3c(Cl)cnn3C3CCN(C(=O)OC(C)(C)C)CC3)c(C)c2)cn1 [Compound 407, tert-butyl 4-(4-chloro-5-((6′-methoxy-5-methyl-[3,3′-bipyridin]-6-yl)carbamoyl)-1H-pyrazol-1-yl)piperidine-1-carboxylate]
Method 1
  IC50: 2570 nM

## CCc1cc(-c2cnc(NC(=O)c3c(Cl)cnn3C3CCN(C(=O)OC(C)(C)C)CC3)c(C)c2)ccc1OC [Compound 408, tert-butyl 4-(4-chloro-5-((5-(3-ethyl-4-methoxyphenyl)-3-methylpyridin-2-yl)carbamoyl)-1H-pyrazol-1-yl)piperidine-1-carboxylate]
Method 1
  IC50: 2670 nM

## Cc1ccc(-n2cc(-c3cnc(NC(=O)c4c(Cl)cnn4C4CCN(C(=O)OC(C)(C)C)CC4)c(C)c3)cn2)cc1 [Compound 409, tert-butyl 4-(4-chloro-5-((3-methyl-5-(1-(p-tolyl)-1H-pyrazol-4-yl)pyridin-2-yl)carbamoyl)-1H-pyrazol-1-yl)piperidine-1-carboxylate]
Method 1
  IC50: 2770 nM

## Cc1cc(-c2ccc(-c3cccs3)cc2)cnc1NC(=O)c1c(Cl)cnn1C1CCN(C(=O)OC(C)(C)C)CC1 [Compound 410, tert-butyl 4-(4-chloro-5-((3-methyl-5-(4-(thiophen-2-yl)phenyl)pyridin-2-yl)carbamoyl)-1H-pyrazol-1-yl)piperidine-1-carboxylate]
Method 1
  IC50: 2780 nM

## Cc1cc(OCc2ccccc2)ccc1NC(=O)c1c(Cl)cnn1C1CCN(C(=O)C(C)C)CC1 [Compound 411, N-(4-(benzyloxy)-2-methylphenyl)-4-chloro-1-(1-isobutyrylpiperidin-4-yl)-1H-pyrazole-5-carboxamide]
Method 1
  IC50: 2840 nM

## Cc1cc(OCc2ccccc2)ccc1NC(=O)c1c(Cl)cnn1CC1CN(C(=O)C2COCCO2)CCO1 (centres unmarked) [Compound 412, 1-((4-(1,4-dioxane-2-carbonyl)morpholin-2-yl)methyl)-N-(4-(benzyloxy)-2-methylphenyl)-4-chloro-1H-pyrazole-5-carboxamide]
Method 1
  IC50: 3000 nM
